For this test, the target named is T1, p53/MDM2 interaction [MDM2 (1-118) 6 his and GST-p53(1-50)] (Homo sapiens, UniProt Q00987).
T1 construct: The human MDM2 N-terminal fragment encompassing amino acids 1-118; made in house; host or cells: E. coli BL21/DE3 (MDM2-6His); E. coli DH5alpha (GST-p53)
The test is described as follows: Measurement of the inhibition of p53/MDM2 interaction (modified ELISA). It counts as binding. The conditions noted are these: 75 nM GST-p53 coated, 75 nM MDM2-6His, NTA-AP detection, optical density at 405 nm, compounds tested between 0 and 100 μM. The method, then: The inhibition of the p53/MDM2 interaction by compounds was measured using a modified ELISA assay using a histidine tagged MDM2 [MDM2 (1-118) 6 his], a p53 GST fusion protein (GST-p53) and a nickel chelate-alkaline phosphatase (NTA-AP).
The human MDM2 N-terminal fragment encompassing amino acids 1-118 and immediately followed by a C-terminal 6-histidine tag sequence and then a stop codon was generated by PCR from a human placental cDNA library. The PCR product was initially cloned into pCR2.1 vector (Invitrogen) following the manufacturer's protocol. DNA sequencing confirmed a MDM fragment sequence identical to that of published MDM2 (EMBL accession no. Z12020). The MDM2-6His fragment was then subcloned into pTB375 E. coli expression vector to produce the expression vector pTB375-MDM2-6His (1-118) clone no. 11. The pTB375 vector is a modified T7 (Studier) Expression vector. Expression grows were performed in E. coli strain BL21/DE3 (obtained from Novagen Inc.) and expression of the recombinant protein was induced by addition of IPTG (isopropyl-β-D-1-thiogalactopyranoside). MDM2 (1-118) 6 his was purified from E. coli lysates using Ni-NTA beads (Qiagen). […]
100 μl of 75 nM GST-p53 was added per well to a 96 well plate (Nunc Maxisorp) and the plate left at 4° C. overnight. […] The optical density of each well was measured at 405 nm. […]
In general terms: In an ELISA, binding on a coated surface is turned into a signal by an enzyme label.

T1 sequence (Q00987 1-118): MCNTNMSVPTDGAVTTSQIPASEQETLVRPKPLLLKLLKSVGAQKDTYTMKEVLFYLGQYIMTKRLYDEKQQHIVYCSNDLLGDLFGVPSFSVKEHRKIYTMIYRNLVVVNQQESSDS

As usually defined, the IC50 is the point on the concentration scale where inhibition reaches its midpoint. High values mean lower potency, low ones higher potency. Molecule `Cc1occc1C(=O)N[C@@H](Cc1c[nH]c2ccccc12)C(=O)N1CCN(c2ccc([N+](=O)[O-])cc2)CC1` [Example 9, 2-Methyl-3-furoyl-Trp-piperazine-4-nitrophenyl] displayed an IC50 of about 4 µM.

Values taken from patent publication US6770627B1, “Piperizine-4-phenyl derivatives as inhibitors of the interaction between mdm2 and p 53” (AstraZeneca AB, priority 1998, dated 2004).
